Patent US20210106700A1, “Fractionated Dosing of a Phospholipid Ether Analog for the Treatment of Cancer” (Cellectar Biosciences, Inc., priority 2018, published 2021)

Test system: OPM-2 cell line (human multiple myeloma)
Experiment: OPM-2 multiple myeloma subcutaneous xenograft in CB17 SCID mice (tumor volume, doubling time, survival, body weight)
Assay type: in vivo, mouse
Conditions: fractionated dosing
Method: The OPM-2 cell line (human multiple myeloma) was purchased from American Type Culture Collection (ATCC, Rockville, Md.) and maintained in McCoy's 5a media supplemented with 10% fetal bovine serum. Female CB17 SCID mice approximately 5-7 weeks of age were injected subcutaneously with 1×10^7 viable cells (in ˜100 μL Dulbecco's PBS) into the right flank. The study was initiated when tumor size had reached a pre-determined size (approximately 150-200 mm3). The mice were given potassium iodide at a concentration of 0.1% in their drinking water to block possible free iodide in the drug formulation three days prior to injection and continuing through two weeks post-injection. Mice were randomly assigned to dose groups. Tumor volume was measured with a caliper during the course of the study. Tumor doubling time calculation4 TDT=D×log(2)/log(1+r/100), where D equals days between measurements and r=rate of growth; r/100=(V2−V1/V1)×100%. Statistical analysis: 1-way Anova, Dunnett's test.

^131I-labeled 18-(p-iodo-phenyl)octadecyl phosphocholine [CLR 131]
Tumor volume vs control (after day 26): statistically significant reduction
Tumor volume vs all other treatments (at day 52, p<0.05): statistically significant reduction
